Reference: patent US9068166B2, “Use of compounds for inducing differentiation of mesenchymal stem cells to chondrocytes” (Industry-Academic Cooperation Foundation Yonsei University, priority 2010, dated 2015)

Assays:
[1] = system: human adipose tissue-derived mesenchymal stem cells; assay: Sandwich ELISA of aggrecan expression (chondrocyte marker) in treated mesenchymal stem cells; assay type: cell-based; conditions: for induction of differentiation of mesenchymal stem cells to chondrocytes (aggrecan expression) compared with A1942: sandwich ELISA, p<0.001 vs. control, FIG. 5
Procedure: (§1) 60 cc of an expanding solution (obtained by adding 30 mL of 1% lidocaine, 30 mL of 0.5% bupivacaine, 10 mL of 4.2% sodium bicarbonate and 1 mg of epinephrine to 1 L of normal water for injection) was applied to the periphery of a navel under sterile conditions. Fats were suctioned using Mercedes 3 mm×9 cm Aspiration Luer Lock Cannula (Byron Medical, Tucson, Ariz.), and then instantly kept on ice. Since a lipoaspirate filtered through a 250 mm sieve included an anesthetic and a contaminant such as blood, the lipoaspirate was washed with phosphate buffered saline (PBS) to remove the anesthetic and the contaminant. Collagenase I (1 mg/mL; Worthington Biochemical Corp., Lakewood, N.J.) was added to the obtained fat tissues, stirred, and then kept at 37° C. for an hour. The suspended adipose tissues were centrifuged at 1,500×g for 10 minutes, and a supernatant containing matured fat cells was discarded. The obtained stroma vascular (SV) cells were washed with 0.1% BSA, suspended in an M-199 medium (including 12.8% fetal bovine serum, heparin, 10,000 U/mL penicillin G, 25 mg/mL amphotericin B, and 10,000 mg/mL streptomycin), plated on a gelatin-coated tissue culture flask, and then incubated. After 24 hours, the tissue culture flask was washed to remove non-attached cells, and the incubation was continued.
[…] In this case, the mesenchymal stem cells were incubated for 11 days while replacing a medium including the compound of Formula 1 with a fresh one once every 3 days.
A capture antibody was bound to the bottom of each well, and the plate was then incubated overnight at 4° C. The plate was washed twice with PBS (Gibco), and treated with 100 μl of PBS containing 3% BSA at room temperature for 2 to 3 hours. The plate was washed twice with PBS, and a cell lysate was added to each well. Then, the plate was incubated at room temperature for 2 hours under a wet atmosphere. The plate was washed four times with PBS containing 0.02% Tween-20 (Sigma). A detector antibody was added to the plate, and the plate was then incubated at room temperature for 2 hours under a wet atmosphere. Thereafter, the plate was incubated with a peroxidase-conjugated secondary antibody at 37° C. for an hour. Finally, the plate was treated with 100 μl of a tetramethylbenzidine (TMB) solution (Sigma) as a substrate, and 25 μl of 0.1 M H2SO4 was added as a terminating buffer to stop the reaction. Immediately after the reaction, the absorbance was measured at 450 nm using an ELISA plate reader (Bio-Rad).

[2] = system: ERK; assay: Western blotting of ERK phosphorylation in treated mesenchymal stem cells; assay type: cell-based, human; conditions: FIG. 3
Procedure: 60 cc of an expanding solution (obtained by adding 30 mL of 1% lidocaine, 30 mL of 0.5% bupivacaine, 10 mL of 4.2% sodium bicarbonate and 1 mg of epinephrine to 1 L of normal water for injection) was applied to the periphery of a navel under sterile conditions. Fats were suctioned using Mercedes 3 mm×9 cm Aspiration Luer Lock Cannula (Byron Medical, Tucson, Ariz.), and then instantly kept on ice. Since a lipoaspirate filtered through a 250 mm sieve included an anesthetic and a contaminant such as blood, the lipoaspirate was washed with phosphate buffered saline (PBS) to remove the anesthetic and the contaminant. […]
Cells were washed once with PBS, and lysed for approximately 20 minutes in a lysis buffer (Cell Signaling Technology) containing 20 mM Tris (pH 7.5), 150 mM NaCl, 1 mM Na2-EDTA, 1 mM EGTA, 1% Triton, 2.5 mM sodium pyrophosphate, 1 mM β-glycerophosphate, 1 mM Na3VO4, 1 mg/ml leupeptin and 1 mM phenylmethylsulfonyl fluoride. […] A concentration of proteins was measured using a Bradford protein assay kit (Bio-Rad). A quantitative protein was separated on a 12% sodium dodecyl sulfate-polyacrylamide gel, and transferred to a polyvinylidene difluoride membrane (Millipore). […] After thorough washing, a band was detected using an improved chemiluminogenic reagent (GE Healthcare Life Sciences). The intensity of the band was quantified using an Image J 1.40 g software (NIH).

[3] = system: human adipose tissue-derived mesenchymal stem cells; assay: Alcian Blue dyeing of sulfated proteoglycan (quantified chondrogenesis); assay type: cell-based; conditions: 1 μM, 11 days, optical density at 650 nm, p<0.05 vs. control, FIG. 1
Procedure: as §1, with “The obtained stroma vascular (SV) cells were washed with 0.1% BSA, suspended in an M-199 medium (including 12.8% fetal bovine serum, heparin, 10,000 U/mL penicillin G, 25 mg/mL amphotericin B, and 10,000 mg/mL streptomycin), plated on a gelatin-coated tissue culture flask, and then incubated. After 24 hours, the tissue culture flask was washed to remove non-attached cells, and the incubation was continued.” left out
Cells were first washed three times with PBS (Gibco), and then immobilized with 100% methanol (Sigma) at −20° C. for 10 minutes. […] To quantify the dyeing intensity, the dyed culture plate was washed three times with PBS, and each well was extracted with 1 ml of 6 M guanidine-HCl (Sigma) overnight at room temperature. The optical density of the extracted dye was measured at 650 nm.

[4] = system: fibronectin, α5-integrin, N-cadherin; assay: Semi-quantitative RT-PCR of fibronectin, integrin α5β1 and N-cadherin in treated mesenchymal stem cells; assay type: cell-based, human; conditions: 1 μM for 11 days, normalized to GAPDH, FIG. 4
Procedure: as §1
When the mesenchymal stem cells were subcultured twice, the mesenchymal stem cells were seeded at a density of 2×10^5 cells/ml in a 60 mm plate containing the same medium as described above, and treated with the compound of Formula 1 (each of the compounds of Examples 1 to 28) at a final concentration of 10 nM, 100 nM, 1 μM, or 10 μM. In this case, the mesenchymal stem cells were incubated for 11 days while replacing a medium including the compound of Formula 1 with a fresh one once every 3 days.
Expression levels of various genes were analyzed through an RT-PCR method. Total RNA was obtained using an Ultraspect™-II RNA system (Biotecx Laboratories, Inc., USA) and an easy-BLUE™ kit (Intron Biotechnology, Seoul, South Korea). […]

## O=C(O)c1cc(NS(=O)(=O)c2cccc3cccnc23)ccc1O [Compound A1944, 2-Hydroxy-5-(quinoline-8-sulfonylamino)-benzoic acid]
[1]
  induction of differentiation of mesenchymal stem cells to chondrocytes (aggrecan expression) compared with A1942: at a level similar to the A1942 compound

## N#CC(=C(/N)Sc1ccccc1N)/C(C#N)=C(\N)Sc1ccccc1N [Compound U0126, reference compound]
[1]; mesenchymal stem cells treated with 1 μM A1942 + U0126, FIG. 2
  expression level of aggrecan, co-treatment with A1942: reduced an expression level of the aggrecan
[2]; A1942 1 μM plus U0126, 11 days
  phosphorylation level of ERK, group treated with A1942 and U0126: did not increase with time

## O=S(=O)(Nc1cccc2ccc(O)cc12)c1cccc2cccnc12 [Compound A1943, Quinoline-8-sulfonic acid (7-hydroxy-naphthalen-1-yl)-amide]
[1]
  induction of differentiation of mesenchymal stem cells to chondrocytes (aggrecan expression) compared with A1942: at a level similar to the A1942 compound

## Cc1ccc(S(=O)(=O)Nc2ccc(O)c3ccccc23)cc1 [Compound A1950, N-(4-hydroxy-naphthalen-1-yl)-4-methyl-benzenesulfonamide]
[1]
  induction of differentiation of mesenchymal stem cells to chondrocytes (aggrecan expression) compared with A1942: at a level similar to the A1942 compound

## O=S(=O)(Nc1cccc2c(O)cccc12)c1ccc(-c2ccccc2)cc1 [Compound A1949, Biphenyl-4-sulfonic acid (5-hydroxy-naphthalen-1-yl)-amide]
[1]
  induction of differentiation of mesenchymal stem cells to chondrocytes (aggrecan expression) compared with A1942: at a level similar to the A1942 compound

## O=S(=O)(Nc1ccc(O)cc1)c1cccc2cccnc12 [Compound A1942, Quinoline-8-sulfonic acid (4-hydroxy-phenyl)-amide]
[1]; 0.1, 0.5 and 1 μM for 11 days, FIG. 2
  expression level of aggrecan: increased in a dose-dependent manner
[3]
  relative absorbance (Alcian Blue) versus control: approximately 3 times
[4]
  expression level of N-cadherin: decreased with time
  expression level of fibronectin: decreased with time
  expression level of α5-integrin: decreased with time
[2]; 1 μM for 11 days
  phosphorylation level of ERK: increased with time

## CC(C)(C)c1ccc(S(=O)(=O)Nc2ccc(O)c(C(=O)O)c2)cc1 [Compound A1948, 5-(4-Tert-butyl-benzenesulfonyl-amino)-2-hydroxy-benzoic acid]
[1]
  induction of differentiation of mesenchymal stem cells to chondrocytes (aggrecan expression) compared with A1942: at a level similar to the A1942 compound
